Several values for one entry are separate records, joined by “and”; a condition that tells them apart may be missing. Identical values can stand only once. No end group written: not given here.
Legend:
[1] = tested on: C. albicans strain SC5314; test: crystal violet based biofilm assay (24 hours, OD600); type: cell-based, Candida albicans; details: for Mean Normalized to vehicle control: biofilm OD600 values normalized to vehicle control, 24 hours; for efficacy in inhibiting formation of biofilm relative to PYY13-36: in vitro, Candida albicans; for inhibition of biofilm formation: crystal violet staining, 10-20 uM of respective peptides
Procedure: FIG. 13. […] Biofilm formation was measured in an assay that quantitates biofilms by staining with a crystal violet dye. The amount of dye absorbed by the biofilm positively correlates with amount of biofilm present. Amount of dye is measured via an optical density reading at a wavelength of 600 nm (OD600). Biofilm formation is measured over 24 hours in the presence or absence of peptides at 10, 30, or 40 uM concentrations.
(§1) Candida albicans (sc3514 cited in: Romanowski et al. PLOS One 7: e30119, 2012.: incorporated by reference in its entirety) and Candida tropicalis (ATCC #13803) were maintained in frozen glycerol stocks at −80° C. and streaked out on yeast-peptone-dextrose (YPD) agar plates for 48 hours at 30° C. prior to use. Single colonies were selected and cultured in YPD media at 30° C. Biofilm assays were performed using crystal violet straining (Taff et al. Med Mycol 50:214-218, 2012.: incorporated by reference in its entirety) in the presence of 10-20 uM of respective peptides. To induce hyphal growth, strains were placed in YPD+5% FBS or RPMI media at 37° C. for 4 hours. To image hyphal membrane disruption, the DNA binding fluorescent dye, propidium iodide (PI), was added to wells strains in the presence of peptides and imaged under bright field and far red fluorescent conditions. […] To investigate Candida albican virulence gene expression, 10 μL of a 1.0 OD600 culture were placed in 1 mL RPMI at 37° C. with shaking for 8 hours. Cultures were centrifuged at 3000×g for 5 minutes and RNA isolation was performed as described below.
Antifungal activity of peptides described in this application was tested by performing a crystal violet based biofilm assay. In this assay, Candida albicans is induced to form a biofilm in a 96-well plate for 24 hours in the presence or absence of peptide. Biofilm formation is quantitated through crystal violet staining and solubilization followed by optical density reading. […] Data are OD600 values normalized to appropriate within experiment vehicle control. Statistical analysis was performed via 2-Way ANOVA with multiple comparisons post-test. Significance is denoted by: *=p<0.05; **=p<0.01; ***-p<0.001; ****=p<0.0001. ns=not significant.

Candida albicans = Candida albicans culture growth; type: cell-based; details: hyphal inducing conditions (broth culture containing serum)
Candida albicans hyphae = test: propidium iodide hyphal permeability assay; type: cell-based; details: N terminus FITC label, during PI assay
Procedure: as §1
Magainin-2 compromises fungal growth by inserting into and permeabilizing the fungal cell wall. […] Permeabilization of the fungal cell wall was determined by uptake of propidium iodide (PI), a dye that is excluded by intact viable cells. […]

PYY = test: ex vivo ileal tissue culture and PYY ELISA; parameters: species or system mice
Procedure: Tissues were harvested from conventional or germ-free WT mice. Three cm sections of distal ileum were dissected from the mesentery and ligated on one end. Next, Krebs buffer (pH 7.4) was inoculated with either LPS (100 ng/mL) or Carbamoylcholine (10 um) and sealed in the ileal section and incubated in Krebs at 37° C. for 30 minutes. Next, the luminal solutions were retrieved and centrifuged at 3000×g for 3 minutes to remove particulate.

Substance | Mean Normalized to vehicle control ([1]; 10 μM peptide) | Mean Normalized to vehicle control ([1]; 30 μM peptide) | Mean Normalized to vehicle control ([1]; 40 μM peptide) | further results
PEELNRYYASLRHYLNLVTRQRA [AVpeptide 3, (14-36, Y36A)] | 1.00 and 0.94 | 0.90 and 0.93 | 0.91 | –
SPEELNRLLASLRHLLNLVTRQRY [AVpeptide 32, (Y20L, Y21L, Y27L)] | – | – | – | efficacy in inhibiting formation of biofilm relative to PYY13-36 [1]: increased inhibition of biofilm formation
SPEELNRYYASLRHYLRLVTRQLY [AVpeptide 9, (N29R; R35L)] | – | – | 0.05 | –
YPEEYNRYYASYRHYLNLVTRQRY [AVpeptide 17, (S13Y L17Y L24Y)] | 0.91 | 0.94 | – | –
PEELNRYYASLRHYLNAVTRQRY [AVpeptide 2, (14-36, L30A)] | 1.05 and 1.02 | 0.91 and 1.08 | 1.01 | –
PYY1-13: PYY peptide composed of amino acids 1-13 (YPIKPEAPGEDAS) | – | – | – | C. albicans culture growth (Candida albicans): displayed no antifungal properties
PEELNRYYASLRHYLNLVTRQLY [AVpeptide 1, (14-36; R35L)] | 0.96 and 0.95 | 0.74 and 0.40 | 0.14 | –
SPEELNRYYASLRHYINLVTRQRY [AVpeptide 29, (L28I)] | 0.58 | 0.04 | – | –
FITC-labeled PYY: fluorescently (N terminus FITC) labeled PYY | – | – | – | localization of labeled peptide (Candida albicans hyphae): localized exclusively to the same terminal hyphal cells that take up PI
SPEELNRYYASLRHYLNLVTRQYY [AVpeptide 7, (R35Y)] | 0.97 | 0.08 | 0.33 | –
LPS | – | – | – | luminal PYY release (PYY; Germ-free (GF) tissues): released only in response to Carb; luminal PYY release (PYY; Specific-Pathogen Free (SPF) tissues): released PYY
SPEELNRYYASLRHYYNLVTRQRY [AVpeptide 12, (L28Y)] | 1.01 | 0.46 | 0.15 | –
LPEELNRYYASLRHYLNLVTRQRY [AVpeptide 10, (S13L)] | – | – | 0.17 | –
LPDELNRYYASLRKYLNLVTRQRY [AVpeptide 25, (S13L, E15D, H26K)] | – | 0.01 and 0.02 | – | inhibition of biofilm formation at concentrations lower than PYY13-36 [1]: greatly inhibited biofilm formation by C. albicans at concentrations lower than PYY13-36; efficacy in inhibiting formation of biofilm relative to PYY13-36 [1]: increased inhibition of biofilm formation
PYY 1-36 Modified: PYY with charge modified by replacing Arginine with Alanine (YPIKPEAPGEDASPEELNAYYASLAHYLNLVTAQAY; ends and bridges not checked) [reference compound] | – | – | – | inhibition of biofilm formation [1]: reduced the inhibitory effect
ASPEELNRYYASLRHYLNLVTRQRY [AVpeptide 18, (12-36)] | 1.11 | 0.16 | 0.05 | –
SPEELNRYYASLRHYLNLVTRQRR [AVpeptide 5, (Y36R)] | 0.64 and 0.76 | 0.28 and 0.53 | – | –
SPEELNRYYASLRHYLNLVTRQ [AVpeptide 15, (13-34)] | 0.96 | 0.78 | 0.69 | –
PYY14-36 Modified: PYY14-36 with Arginine replaced by Alanine (PEELNAYYASLAHYLNLVTAQAY; ends and bridges not checked) [reference compound] | – | – | – | inhibition of biofilm formation [1]: reduced the inhibitory effect

Substance | Mean Normalized to vehicle control ([1]; 10 μM peptide) | Mean Normalized to vehicle control ([1]; 30 μM peptide) | Mean Normalized to vehicle control ([1]; 40 μM peptide) | further results
SPEELNRYYASLRHYLNLVTRQLY [AVpeptide 21, (R35L)] | 0.92 | 0.02 | – | –
SPEELNRYYTALRHYLNLVTRQRY [AVpeptide 30, (A22T, S23A)] | 0.16 and 0.10 | 0.02 | – | –
SPEELNRYYASLRHYLNLVTRQVY [AVpeptide 8, (R35V)] | 0.97 | 0.71 | 0.31 | efficacy in inhibiting formation of biofilm relative to PYY13-36 [1]: reduced efficacy
SPEELNRYYLALRHYLNLVTRQRY [AVpeptide 31, (A22L, S23A)] | 0.05 | 1.00 | – | –
SPEELNKYYASLRHYLNLVTRQRY [AVpeptide 27, (R19K)] | 0.66 | 0.08 | – | –
PEELNRYYASLRHYLNAVTRQLA [AVpeptide 4, (14-36, L30A; R35L; Y36A)] | 1.04 and 0.98 | 0.89 and 0.94 | 0.88 | –
LPEELNRYYASLRHYLRLVTRQLY [AVpeptide 23, (S13L, N29R, R35L)] | 0.03 | – | – | inhibition of biofilm formation at concentrations lower than PYY13-36 [1]: greatly inhibited biofilm formation by C. albicans at concentrations lower than PYY13-36; efficacy in inhibiting formation of biofilm relative to PYY13-36 [1]: increased inhibition of biofilm formation
SPEELNRYYASSRHYLNLVTRQRY [AVpeptide 19, (L24S)] | 1.06 | 1.01 | 0.97 | efficacy in inhibiting formation of biofilm relative to PYY13-36 [1]: reduced efficacy
SPEQLNRYYASLRHYLNLVTRERY [AVpeptide 13, (E16Q, Q34A)] | 0.95 | 0.14 | 0.07 | –
SPDELNRYYASLRKYLNLVTRQRY [AVpeptide 14, (E15D, H26K)] | 0.82 | 0.07 | 0.07 | –
SPEELNRYLASLRHYLNLVTRQRY [AVpeptide 28, (Y21L)] | – | 0.09 and 0.17 | – | –
SPEELNRYYASLRHYLRLVTRQRY [AVpeptide 22, (N29R)] | 0.84 | 0.37 | – | –
SPEELNRYYLSLRHYLNLVTRQRY [AVpeptide 20, (A22L)] | 0.47 and 0.52 and 0.62 | 1.07 and 1.25 and 1.03 | 1.04 | efficacy in inhibiting formation of biofilm relative to PYY13-36 [1]: increased inhibition of biofilm formation
YPEEYNRYYASYRHYLNHVTRQRY [AVpeptide 16, (S13Y L17Y L24Y L30H)] | 1.06 | 1.02 | 0.95 | –
SPEELNRYYASLRHYLNLVTRQLR [AVpeptide 6] | 0.97 | 0.52 | 0.28 | efficacy in inhibiting formation of biofilm relative to PYY13-36 [1]: reduced efficacy
SPEELNRYYASLRHYLNLVTRQR [AVpeptide 24, (PYY13-35)] | 0.83 | 0.71 | – | efficacy in inhibiting formation of biofilm relative to PYY13-36 [1]: reduced efficacy
PYY1-12: N-terminal PYY fragment used as inactive comparison peptide (YPIKPEAPREDA; Peptide YY; UniProt P10082 29-40, looked up, fragment) [reference compound] | – | – | – | inhibition of biofilm formation [1]: not a scrambled peptide control or PYY1-12, were capable of blocking biofilm formation
LPEELNRYYASLRHYLNLVTRQLY [AVpeptide 11, (S13L; R35L)] | – | – | 0.99 | –
